Where two headings read alike, the source gives them in different places.
Key:
HeLa MKYP cells [1] = assay: Human mitophagy assay (HeLa mKeima assay, FACS); type: cell-based; conditions: read-out: Mitophagy induction EC50
Method: Briefly, HeLa MKYP cells were plated at 10,000 cells/well in 96 well plates along with compounds at various concentrations. Following 16 hrs of incubation, cells were treated with 1 uM FCCP/oligomycin for 6 hours, then analyzed via FACS for the presence of mitochondria in lysosomes (as determined by an emissions spectrum shift from the pH-sensitive mtKeima tag).
Briefly, HeLa cells expressing a mitophagy indicator (mtKeima) protein were treated with […] of FCCP and Oligomycin followed by the specified dose of compound, then analyzed by FACS to quantify the percentage of cells undergoing mitophagy.

HeLa MKYP cells [2] = assay: Cell death measured by DAPI staining, with 1 μM FCCP/oligomycin or no toxin (no FO); type: cell-based
Method: EP-0035985, EP-0037821, EP-0038098, and EP-0038099 in the presence of 1 μM FCCP/oligomycin or with no toxin (no FO) for 6 hrs. H2O2 treatment was performed as a control for cell death as measured by DAPI staining.
EP-0035985, EP-0038461, EP-0038463, and EP-0038503 in the presence of 1 μM FCCP/oligomycin or with no toxin (no FO) for 6.5 hrs. H2O2 treatment was performed as a control for cell death as measured by DAPI staining.
EP-0035985, EP-0038504, EP-0038508, and EP-0038521 in the presence of 1 μM FCCP/oligomycin or with no toxin (no FO) for 6.5 hrs. H2O2 treatment was performed as a control for cell death as measured by DAPI staining.
EP-0035985, EP-0038461, EP-0038463, EP-0038503, EP-0038504, EP-0038508, and EP-0038521 in the presence of 1 μM FCCP/oligomycin or with no toxin (no FO) for 6.5 hrs. H2O2 treatment was performed as a control for cell death as measured by DAPI staining.

Row | Structure (SMILES) | EC50 (HeLa MKYP cells [1]; Homo sapiens, HeLa) [µM] | Highest safe dose (cytotoxicity; no FO; safe means DAPI+ <20%) (HeLa MKYP cells [2]) [µM] | Max % death with 1 μM FO (HeLa MKYP cells [2]) [%] | EC50 (HeLa MKYP cells [1]) [µM]
1 | C[C@H]1CN([C@H]2COc3cc(F)ccc3[C@@H]2Nc2ncnc3[nH]c(C4CC4)cc23)CCO1 [EP-0041124] | 5.32 | 25.0 | 12.7 | –
2 | Fc1ccc2c(c1)OC[C@H](N1C[C@H]3COC[C@@H]3C1)[C@H]2Nc1ncnc2[nH]c(C(F)(F)F)cc12 (single isomer, unassigned) [EP-0040563] | – | 25.0 | 9.7 | 1.05
3 | COC[C@H]1CCN([C@H]2COc3ccccc3[C@@H]2Nc2ncnc3[nH]c(C(F)(F)F)cc23)C1 (single isomer, unassigned) [EP-0041174] | – | 25.0 | 4.6 | 15.3
4 | C[C@H]1CN([C@@H]2COc3cc(F)ccc3[C@H]2Nc2ncnc3[nH]c(C(F)(F)F)cc23)CCO1 [EP-0040982] | 7.62 | 25.0 | 6.1 | –
5 | C[S@@](=N)(=O)C1CN(C2COc3ccccc3C2Nc2ncnc3[nH]c(C(F)(F)F)cc23)C1 (single isomer, unassigned) [EP-0041498] | > 25 | 25.0 | 3.7 | –
6 | [2H]C([2H])([2H])OC1CN([C@H]2COc3ccccc3[C@@H]2Nc2ncnc3[nH]c(C(F)(F)F)cc23)C1 (single isomer, unassigned) [EP-0041248] | 0.49 | 25.0 | 10.5 | –
7 | CS(=N)(=O)C1CN(C2COc3ccccc3C2Nc2ncnc3[nH]c(C(F)(F)F)cc23)C1 (stereo not drawn) [EP-0041496] | > 25 | 25.0 | 3.4 | –
8 | COC[C@H]1CCN([C@H]2COc3ccccc3[C@@H]2Nc2ncnc3[nH]c(C4CC4)cc23)C1 [EP-0041547] | – | 25.0 | 8.2 | 7.29
9 | FC(F)(F)c1cc2c(N[C@H]3c4ccccc4OC[C@H]3N3CCOCC3)ncnc2[nH]1 [EP-0040084] | 15.6 | 25.0 | 3.7 | –
10 | FC(F)OC1CN([C@H]2COc3ccccc3[C@@H]2Nc2ncnc3[nH]c(C(F)(F)F)cc23)C1 (racemic) [EP-0041354] | – | 25.0 | 12.4 | 1.08
11 | FC(F)(F)c1cc2c(N[C@@H]3c4ccccc4CC[C@H]3C3CCOCC3)ncnc2[nH]1 (single isomer, unassigned) [EP-0040581] | 2.69 | 25.0 | 8.1 | –
12 | OC[C@H]1CCN(C2CCc3ccccc3C2Nc2ncnc3[nH]c(C(F)(F)F)cc23)C1 (mixture of isomers) [EP-0040121] | 1.29 | 25.0 | 33.6 | –
13 | C[C@@H]1COCCN1[C@@H]1CCc2ccccc2[C@H]1Nc1ncnc2[nH]c(C(F)(F)F)cc12 (single isomer, unassigned) [EP-0040197] | – | 25.0 | 8.4 | 22.7
14 | COCC1CC([C@H]2COc3ccccc3[C@@H]2Nc2ncnc3[nH]c(C(F)(F)F)cc23)C1 (stereo partly drawn) [EP-0041260] | 0.85 | 25.0 | 10.2 | –
15 | c1ccc2c(c1)CC[C@@H](C1CCOCC1)[C@@H]2Nc1ncnc2[nH]c(C3CC3)cc12 [EP-0040727] | 2.85 | 25.0 | 7.7 | –
16 | OC[C@@H]1CCCN1[C@H]1CCc2ccccc2[C@@H]1Nc1ncnc2[nH]c(C3CC3)cc12 [EP-0040085] | > 25 | 8.3 | 38.1 | –
17 | CC(C)(O)C1CN([C@H]2COc3ccccc3[C@@H]2Nc2ncnc3[nH]c(C(F)(F)F)cc23)C1 (single isomer, unassigned) [EP-0041490] | > 25 | 25.0 | 3.4 | –
18 | Fc1cccc2c1CC[C@H](N1C[C@H]3COC[C@H]3C1)[C@H]2Nc1ncnc2[nH]c(C3CC3)cc12 (single isomer, unassigned) [EP-0040576] | 2.79 | 25.0 | 21.2 | –
19 | N#CC1CN([C@H]2COc3ccccc3[C@@H]2Nc2ncnc3[nH]c(C(F)(F)F)cc23)C1 [EP-0041332] | 1.54 | 25.0 | 11.7 | –
20 | C[C@H]1COCCN1[C@@H]1CCc2ccccc2[C@H]1Nc1ncnc2[nH]c(C(F)(F)F)cc12 (single isomer, unassigned) [EP-0040193] | – | 25.0 | 29.7 | 9.46
21 | CC(C)OC1CN([C@H]2COc3ccccc3[C@@H]2Nc2ncnc3[nH]c(C(F)(F)F)cc23)C1 [EP-0041465] | 6.85 | 25.0 | 4.6 | –
22 | c1ccc2c(c1)CC[C@@H](N1C[C@H]3COC[C@H]3C1)[C@@H]2Nc1ncnc2[nH]c(C3CC3)cc12 (single isomer, unassigned) [EP-0040249] | 0.09 | 25.0 | 12.3 | –
23 | FC(F)(F)c1cc2c(N[C@H]3c4ccccc4OC[C@H]3C3CCOCC3)ncnc2[nH]1 [EP-0040586] | > 25 | 8.3 | 16.9 | –
24 | Fc1ccc2c(c1)OC[C@H](N1C[C@H]3COC[C@H]3C1)[C@H]2Nc1ncnc2[nH]c(C3CC3)cc12 (single isomer, unassigned) [EP-0040326] | – | 25.0 | 3.6 | > 25
25 | CC1(O)CN([C@@H]2COc3ccccc3[C@H]2Nc2ncnc3[nH]c(C(F)(F)F)cc23)C1 (single isomer, unassigned) [EP-0041264] | > 25 | 25.0 | 2.5 | –
26 | Fc1ccc2c(c1)CC[C@@H](N1C[C@@H]3COC[C@H]3C1)[C@@H]2Nc1ncnc2[nH]c(C(F)(F)F)cc12 [EP-0040696] | 23.4 | 25.0 | 14.9 | –
27 | Fc1cccc2c1CC[C@H](N1C[C@H]3COC[C@H]3C1)[C@H]2Nc1ncnc2[nH]c(C(F)(F)F)cc12 (single isomer, unassigned) [EP-0040505] | 13.5 | 25.0 | 14.3 | –
28 | FC1(F)CN(C2COc3ccccc3C2Nc2ncnc3[nH]c(C4CC4)cc23)C1 (racemic) [EP-0041566] | 1 | 25.0 | 30.0 | –
29 | c1ccc2c(c1)OCC(N1CC3CCOC3C1)C2Nc1ncnc2[nH]c(C3CC3)cc12 (single isomer, unassigned) [EP-0041667] | – | 25.0 | 3.1 | > 25
